# Assay results as given in patent US9670170B2, “Resorufin derivatives for treatment of oxidative stress disorders” (BioElectron Technology Corporation, priority 2013, dated 2017).
# Tested on: FRDA fibroblasts
# Assay: Rescue of BSO-stressed human dermal fibroblasts from Friedreich's Ataxia patients (Calcein AM viability)
# Assay type: cell-based
# Settings: Homo sapiens, GM04078, 48 h, read-out: Ec50 Average
# Method: An initial screen was performed to identify compounds effective for the amelioration of redox disorders. Test samples, 4 reference compounds (idebenone, decylubiquinone, Trolox and alpha-tocopherol), and solvent controls were tested for their ability to rescue FRDA fibroblasts stressed by addition of L-buthionine-(S,R)-sulfoximine (BSO), as described in Jauslin et al., Hum. Mol. Genet. 11(24):3055 (2002), Jauslin et al., FASEB J. 17:1972-4 (2003), and International Patent Application WO 2004/003565. […] This specific BSO-mediated cell death can be prevented by administration of antioxidants or molecules involved in the antioxidant pathway, such as alpha-tocopherol, selenium, or small molecule glutathione peroxidase mimetics. However, antioxidants differ in their potency, i.e. the concentration at which they are able to rescue BSO-stressed FRDA fibroblasts.
# MEM (a medium enriched in amino acids and vitamins, catalog no. 1-31F24-I) and Medium 199 (M199, catalog no. 1-21F22-I) with Earle's Balanced Salts, without phenol red, were purchased from Bioconcept. Fetal Calf Serum was obtained from PAA Laboratories. Basic fibroblast growth factor and epidermal growth factor were purchased from PeproTech. Penicillin-streptomycin-glutamine mix, L-buthionine (S,R)-sulfoximine, (+)-alpha-tocopherol, decylubiquinone, and insulin from bovine pancreas were purchased from Sigma. Trolox (6-Hydroxy-2,5,7,8-tetramethylchromane-2-carboxylic acid) was obtained from Fluka. Idebenone was obtained from Chemo Iberica. Calcein AM was purchased from Anaspec. Cell culture medium was made by combining 125 ml M199 EBS, 50 ml Fetal Calf Serum, 100 U/ml penicillin, 100 microgram/ml streptomycin, 2 mM glutamine, 10 microgram/ml insulin, 10 ng/ml EGF, and 10 ng/ml bFGF; MEM EBS was added to make the volume up to 500 ml. A 10 mM BSO solution was prepared by dissolving 444 mg BSO in 200 ml of medium (Invitrogen, Carlsbad, Ca.) with subsequent filter-sterilization. During the course of the experiments, this solution was stored at +4° C. The cells were obtained from the Coriell Cell Repositories (Camden, N.J.; repository number GM04078) and grown in 10 cm tissue culture plates. Every third day, they were split at a 1:3 ratio.
# The test samples were supplied in 1.5 ml glass vials. The compounds were diluted with DMSO, ethanol or PBS to result in a 5 mM stock solution. Once dissolved, they were stored at −20° C. Reference antioxidants (idebenone, decylubiquinone, alpha-tocopherol and Trolox) were dissolved in DMSO.
# Test samples were screened according to the following protocol:
# A culture with FRDA fibroblasts was started from a 1 ml vial with approximately 500,000 cells stored in liquid nitrogen. Cells were propagated in 10 cm cell culture dishes by splitting every third day in a ratio of 1:3 until nine plates were available. Once confluent, fibroblasts were harvested. For 54 micro titer plates (96 well-MTP) a total of 14.3 million cells (passage eight) were re-suspended in 480 ml medium, corresponding to 100 microliters medium with 3,000 cells/well. The remaining cells were distributed in 10 cm cell culture plates (500,000 cells/plate) for propagation. The plates were incubated overnight at 37° C. in a atmosphere with 95% humidity and 5% CO2 to allow attachment of the cells to the culture plate.
# 10% DMSO (242.5 microliters) was added to a well of the microtiter plate. The test compounds were unfrozen, and 7.5 microliters of a 5 mM stock solution was dissolved in the well containing 242.5 microliters of 10% DMSO, resulting in a 150 micromolar master solution. Serial dilutions from the master solution were made. The period between the single dilution steps was kept as short as possible (generally less than 30 seconds). At least 4 hours after attachment into MTP, cells were then treated with the various compound dilutions.
# Plates were kept overnight in the cell culture incubator. […]
row,SMILES,EC50
1,O=c1ccc2nc3ccc(OCc4ccccc4)cc3oc-2c1 [Compound 1],1 nM
2,COc1ccc2nc3ccc(=O)cc-3oc2c1 [Compound 3],1 nM
3,O=c1ccc2nc3ccc(O)cc3oc-2c1 [Compound 4],84 nM
4,CCOc1ccc2nc3ccc(=O)cc-3oc2c1 [Compound 5],0.8 nM

# Same assay, conditions: Homo sapiens; compounds of the invention; FRDA fibroblasts (GM04078), 1 mM BSO, 48 h; tested three times; read-out: Ec50 Average
row,SMILES,EC50
1,COc1c2nc3ccc(C)cc3oc-2c(C)c(=O)c1OC [Compound 6],2 nM
2,COCCN(C)C(=O)c1ccc2nc3c(C)c(C)c(=O)c(C)c-3oc2c1 [Compound 7],2 nM
3,Cc1c2nc3ccc(C(=O)NCCN4CCOCC4)cc3oc-2c(C)c(=O)c1C [Compound 8],3 nM
4,Cc1ccc2nc3c(C)c(C)c(=O)c(C)c-3oc2c1C [Compound 9],4 nM
5,Cc1c2nc3ccc(C(=O)NCCCO)cc3oc-2c(C)c(=O)c1C [Compound 10],5 nM
6,Cc1ccc2nc3c(C)c(C)c(=O)c(C)c-3oc2c1 [Compound 11],5 nM
7,COCCNC(=O)c1ccc2nc3c(C)c(C)c(=O)c(C)c-3oc2c1 [Compound 12],6 nM
8,COc1ccc2nc3c(OC)c(OC)c(=O)c(C)c-3oc2c1 [Compound 13],12 nM
9,O=c1ccc2nc3ccc(O[C@@H]4O[C@H](CO)[C@H](O)[C@H](O)[C@H]4O)cc3oc-2c1 [Compound 14],16 nM
10,COCCOCCOCCOCCNC(=O)c1ccc2nc3c(C)c(C)c(=O)c(C)c-3oc2c1 [Compound 15],17 nM
11,Cc1c2nc3ccc(C(F)(F)F)cc3oc-2c(C)c(=O)c1C [Compound 17],23 nM
12,Cc1c2nc3ccc(C(=O)NCCc4ccccc4)cc3oc-2c(C)c(=O)c1C [Compound 19],25 nM
13,Cc1cc(C)c2nc3c(C)c(C)c(=O)c(C)c-3oc2c1 [Compound 20],26 nM
14,COC(=O)c1ccc2nc3c(C)c(C)c(=O)c(C)c-3oc2c1 [Compound 21],50 nM
15,Cc1c2nc3cc(C(F)(F)F)ccc3oc-2c(C)c(=O)c1C [Compound 22],54 nM
16,Cc1cc2oc3c(C)c(=O)c(C)c(C)c-3nc2cc1S(C)(=O)=O [Compound 23],234 nM

# Same assay, conditions: control compounds; FRDA fibroblasts (GM04078), 1 mM BSO, 48 h; average of three values; read-out: EC50 Average
row,SMILES,EC50
1,"Cc1c(C)c2c(c(C)c1O)CC[C@@](C)(CCC[C@H](C)CCC[C@H](C)CCCC(C)C)O2 [alpha-tocopherol, reference compound]",300 nM

# Same assay, conditions: control compounds; FRDA fibroblasts (GM04078), 1 mM BSO, 48 h; first of three experiments; read-out: EC50 Value 1
row,SMILES,EC50
1,"Cc1c(C)c2c(c(C)c1O)CC[C@@](C)(CCC[C@H](C)CCC[C@H](C)CCCC(C)C)O2 [alpha-tocopherol, reference compound]",400 nM

# Same assay, conditions: control compounds; FRDA fibroblasts (GM04078), 1 mM BSO, 48 h; second of three experiments; read-out: EC50 Value 2
row,SMILES,EC50
1,"Cc1c(C)c2c(c(C)c1O)CC[C@@](C)(CCC[C@H](C)CCC[C@H](C)CCCC(C)C)O2 [alpha-tocopherol, reference compound]",150 nM

# Same assay, conditions: control compounds; FRDA fibroblasts (GM04078), 1 mM BSO, 48 h; third of three experiments; read-out: EC50 Value 3
row,SMILES,EC50
1,"Cc1c(C)c2c(c(C)c1O)CC[C@@](C)(CCC[C@H](C)CCC[C@H](C)CCCC(C)C)O2 [alpha-tocopherol, reference compound]",350 nM
